In patent US4767720A, “Antidigoxin antibodies” (HSC Research Development Corporation, priority 1985, dated 1988):
“Also recorded” adds a separate entry of the source.

Columns and labels:
[1] = system: antibodies raised against ozonized digoxin-BSA; type: binding, rabbit; conditions: for competition for 3H-digoxin binding / cross reaction with the new antibody: 3H-digoxin RIA, FIG. 7a and 7b; for cross-reactivity index: calculated from the molar concentration required to reduce the 3H-digoxin binding by 50%; for Digoxin apparent value measured by [3H]digoxin RIA: metabolite alone at the actual concentration of the line, actual digoxin 0
Procedure: The ^3 H-digoxin radioimmunoassay method was adapted from that previously described in Cerceo E. and Elloso CA (1972) Factors Affecting the Radioimmunoassay of Digoxin, Clin. Chem. 18, 539-542. Briefly, tubes containing 0-30 ng ^3 H-digoxin (3000 dpm) in PBS were incubated at room temperature for 15 mins in the presence of 1/20 diluted antidigoxin serum. Ice cold dextran coated charcoal was added and incubated at 4° C. for 10 mins. This mixture was centrifuged and the ^3 H-digoxin remaining in the supernate was counted in a liquid scintillation spectrometer. Controls in the absence of serum and for non-immune serum were performed in parallel.
The degree of cross reactivity of the digoxin metabolites was monitored using the ^3 H-digoxin radioimmunoassay.

[2] = system: antidigoxin antibody raised against a bovine serum albumin-digoxin conjugate immunogen; conditions: background statement on prior-art antibodies; cited from earlier work
[3] = system: commercial antidigoxin antibodies raised against BSA periodate conjugated digoxin; assay: 125I-digoxin RIA using commercial antidigoxin antibodies (whole serum or affinity purified); type: binding; conditions: for Concentration Measured by RIA Using Affinity Purified Antibody: antibody affinity purified from the same immune serum; for Concentration Measured by RIA Using whole Serum: commercial antidigoxin antibodies, true concentration of antigen given
Procedure: Antidigoxin antibodies raised against BSA periodate conjugated digoxin were purchased from Antibodies Incorporated (Davis, Calif.) and Wien Laboratories (Succasunna, N.J.). Antidigoxin activity was determined using the ^125 I-digoxin radioimmune assay as previously described. Soldin, S; Papanastasion-Diamand, A; Heyes, J;, Lingwood C. A. and Olley, P. (1984) Are Immunoassays for Digoxin Reliable? Clin. Biochem. 17, 317-320. The immune serum was precipitated with 40% ammonium sulfate. The precipitate was redissolved and dialysed against phosphate buffered saline pH 7.4 (PBS). Antidigoxin antibodies were further purified by immunoaffinity chromatography. Digoxin was covalently linked to agarose by use of a photoactive heterobifunctional crosslinking agent as described in Lingwood, C. A. (1984) Production of Glycolipid Affinity Matrices by Use of Heterobifunctional Crosslinking Agents, J. Lipid Res. 25, 1010-1012. Amino hexyl agarose was treated with 2 mM hydroxysuccinimidyl azidobenzoate in the dark for 1 hour at room temperature. The beads were washed with water and 2 mg ^3 H-digoxin (1 mg/ml enthanol/water 1:1) was added. The beads were rotoevaporated to dryness when the digoxin was absorbed onto the beads. The dry beads were then irradiated for 2 min/1 cm from a Mineralight II UV source with stirring, when the digoxin is covalently attached to the agarose beads. The matrix was washed with 100 column volumes 50% ethanol and 50 column volumes water. The wash fractions were concentrated and unbound ^3 H-digoxin was measured. The amount of digoxin coupled/ml agarose was calculated (0.2 μmoles/ml beads).
The immunoglobulin fraction from 1 ml immune serum was applied and the digoxin column was washed with PBS. Antidigoxin activity was measured using the automated ^125 I-RIA method. […] Specific antibodies were eluted by addition of 10 ml 1M KI followed by 10 ml 1M KSCN. The eluted fractions were dialysed, concentrated vs sucrose, dialysed and used in the RIA.
Cross-reactivity of commercial antidigoxin antibodies towards the digoxin metabolites in which one, two and three sugars have been removed (digoxigenin bisdigitoxoside, monodigitoxoside and […] respectively) was measured. […] Purification of the antidigoxin antibodies by affinity chromatography considerably reduces this cross reactivity such that the metabolites are now recognized on a one to one basis relative to digoxin.

[4] = system: antibodies generated against periodate-oxidized digoxin-BSA conjugate; type: binding; conditions: metabolite alone at the actual concentration of the line, actual digoxin 0
Source text: A comparison was made between the antiserum of Example 4 and the commercially available antidigoxin serum using FPIA (fluorescence polarization immuno assay) to measure the digoxin concentration for solutions containing known levels of the digoxin metabolites as identified in the following Table 3.

SMILES | competition for 3H-digoxin binding / cross reaction with the new antibody [1] | cross-reactivity with the antibodies [2] | cross-reactivity index [1] [%] | Digoxin apparent value measured by [3H]digoxin RIA [1] [nmol/L] | Concentration Measured by RIA Using Affinity Purified Antibody [3] [nmol/L] | Concentration Measured by RIA Using whole Serum [3] [nmol/L] | Digoxin apparent value measured by FPIA [4] [nmol/L]
CC1OC(OC2C(O)CC(OC3C(O)CC(OC4CCC5(C)C(CCC6C5CC(O)C5(C)C(C7=CC(=O)OC7)CCC65O)C4)OC3C)OC2C)CC(O)C1O (stereo not shown) [digoxin, Digoxin] | effectively competed out |  |  |  |  |  | 
CC1OC(OC2C(O)CC(OC3C(O)CC(OC4CCC5(C)C(CCC6C5CC(O)C5(C)C(C7COC(=O)C7)CCC65O)C4)OC3C)OC2C)CC(O)C1O (stereo not shown) [dihydrodigoxin] |  | little or no cross-reactivity |  |  |  |  | 
C[C@H]1O[C@@H](O[C@H]2[C@@H](O)C[C@H](O[C@H]3CC[C@@]4(C)[C@H](CC[C@@H]5[C@@H]4C[C@@H](O)[C@]4(C)[C@@H](C6=CC(=O)OC6)CC[C@]54O)C3)O[C@@H]2C)C[C@H](O)[C@@H]1O [Digoxigenin bisdigitoxide, digoxigenin bisdigitoxide] |  | react with the antibodies | 14.6 | 0.8 | 6.3 | 25.2 | 6.05
C[C@@H](O)[C@@H](O)[C@@H](O)CC=O [digitoxose] | does not compete for digoxin binding; also recorded: does not cross react at all |  |  |  |  |  | 
C[C@H]1O[C@@H](O[C@H]2[C@@H](O)C[C@H](O[C@H]3[C@@H](O)C[C@H](O[C@H]4CC[C@@]5(C)[C@H](CC[C@@H]6[C@@H]5CC[C@]5(C)[C@@H](C7=CC(=O)OC7)CC[C@]65O)C4)O[C@@H]3C)O[C@@H]2C)C[C@H](O)[C@@H]1O [Digitoxin] | considerable reduced reactivity |  | 11 | 0 |  |  | 9.6
C[C@]12CC[C@H](O)C[C@H]1CC[C@@H]1[C@@H]2C[C@@H](O)[C@]2(C)[C@@H](C3=CC(=O)OC3)CC[C@]12O [Digoxigenin] | ineffective antigen | react with the antibodies |  | 0 | 6.9 | 25.2 | 13.8
C[C@]12CC[C@H](O)C[C@H]1CC[C@@H]1[C@@H]2C[C@@H](O)[C@]2(C)[C@@H](C3COC(=O)C3)CC[C@]12O (stereo partly shown) [Dihydrodigoxigenin] |  | little or no cross-reactivity |  |  | 0.8 | 0.8 | 
C[C@H]1O[C@@H](O[C@H]2CC[C@@]3(C)[C@H](CC[C@@H]4[C@@H]3C[C@@H](O)[C@]3(C)[C@@H](C5=CC(=O)OC5)CC[C@]43O)C2)C[C@H](O)[C@@H]1O [Digoxigenin monodigitoxide] |  | react with the antibodies | 3.7 | 0.7 | 5.0 | 24.3 | 10
